# Results reported in patent publication US6737383B1, “Herbicidal oxadiazolidines” (priority 1999, dated 2004).
# What was measured:
# rice = assay: Test B flood test rice; format: in vivo, Oryza sativa
# Procedure, shortened: (§1)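 Flood test on plants grown to the 2-leaf stage; treated plants kept in greenhouse twelve to sixteen days, then visually rated against controls on a 0 (no effect) to 10 (complete control) scale.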
# smallflower flatsedge = assay: Test B flood test smallflower flatsedge; format: in vivo, Cyperus difformis
# Procedure, shortened: as §1
# surinam grass = assay: Test B pre/postemergence surinam grass; format: in vivo, Brachiaria decumbens
# Procedure, shortened: (§2)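 Test chemicals in a non-phytotoxic solvent mixture with surfactant were sprayed preemergence onto planted seeds and postemergence onto plants 2 to 18 cm tall (1- to 4-leaf stage). After twelve to sixteen days in a greenhouse, injury was visually rated against untreated controls from 0 (no effect) to 10 (complete control).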
# duck salad = assay: Test B flood test duck salad; format: in vivo, Heteranthera limosa
# Procedure, shortened: as §1
# pigweed = assay: Test B pre/postemergence pigweed; format: in vivo, Amaranthus retroflexus
# Procedure, shortened: as §2
# rape = assay: Test B pre/postemergence rape; format: in vivo, Brassica napus
# Procedure, shortened: as §2
# wheat = assay: Test B pre/postemergence wheat; format: in vivo, Triticum aestivum
# Procedure, shortened: as §2
# cocklebur = assay: Test B pre/postemergence cocklebur; format: in vivo, Xanthium strumarium
# Procedure, shortened: as §2
# corn = assay: Test B pre/postemergence corn; format: in vivo, Zea mays
# Procedure, shortened: as §2
# wild oat = assay: Test B pre/postemergence wild oat; format: in vivo, Avena fatua
# Procedure, shortened: as §2
# bamyardgrass = assay: Test B flood test barnyardgrass; format: in vivo, Echinochloa crus-galli
# Procedure, shortened: as §1
# giant foxtail = assay: Test B pre/postemergence giant foxtail; format: in vivo, Setaria faberii
# Procedure, shortened: as §2
# crabgrass = assay: Test B pre/postemergence crabgrass; format: in vivo, Digitaria sanguinalis
# Procedure, shortened: as §2
# sugar beet = assay: Test B pre/postemergence sugar beet; format: in vivo, Beta vulgaris
# Procedure, shortened: as §2
# morningglory = assay: Test B pre/postemergence morningglory; format: in vivo, Ipomoea hederacea
# Procedure, shortened: as §2
# purple nutsedge = assay: Test B pre/postemergence purple nutsedge; format: in vivo, Cyperus rotundus
# Procedure, shortened: as §2
# [1] = Postemergence, Rate 62 g/ha, scale 0 to 10, 0 is no effect, 10 is complete control
# [2] = Rate 125 g/ha, Postemergence section (flood test species), scale 0 to 10, 0 no effect, 10 complete control
# [3] = Rate 500 g/ha, Postemergence section of Table B, 0 to 10 scale (0 no effect, 10 complete control)
# [4] = flood test, listed under Postemergence, Rate 250 g/ha, scale 0 to 10, 0 no effect, 10 complete control
# [5] = Postemergence, Rate 250 g/ha, scale 0 to 10, 0 no effect, 10 complete control
# [6] = Preemergence, Rate 62 g/ha, scale 0 to 10, 0 is no effect, 10 is complete control
# [7] = Preemergence, Rate 125 g/ha, scale 0 to 10 (0 no effect, 10 complete control)
# [8] = Preemergence, Rate 250 g/ha, scale of 0 to 10 where 0 is no effect and 10 is complete control
# [9] = Preemergence, Rate 500 g/ha, scale 0 (no effect) to 10 (complete control)
# [10] = Rate 125 g/ha, Postemergence, scale 0 to 10, 0 no effect, 10 complete control
# [11] = Rate 500 g/ha, Postemergence, 0 to 10 scale (0 no effect, 10 complete control)
# [12] = Preemergence, Rate 31 g/ha, visual rating, scale 0 to 10 (0 no effect, 10 complete control)
# [13] = Rate 31 g/ha, Postemergence, scale 0 to 10
compound,measurement,setting,value
CCN(CC)C(=O)n1oc(=O)n(-c2cc(Cl)cc(Cl)c2)c1=O [Compound 11],Rice plant response rating,rice; [1],0
same,Rice plant response rating,rice; [2],0
same,Rice plant response rating,rice; [3],0
same,Rice plant response rating,rice; [4],0
same,S. Flatsedge plant response rating,smallflower flatsedge; [1],0
same,S. Flatsedge plant response rating,smallflower flatsedge; [2],0
same,S. Flatsedge plant response rating,smallflower flatsedge; [4],0
same,B. signalgrass plant response rating,surinam grass; [1],0
same,B. signalgrass plant response rating,surinam grass; [5],0
same,"Plant response rating, B. signalgrass",surinam grass; [6],0
same,"Plant response rating, B. signalgrass",surinam grass; [7],0
same,"Plant response rating, B. signalgrass",surinam grass; [8],0
same,B. signalgrass plant response rating,surinam grass; [9],0
same,B. signalgrass plant response rating,surinam grass; [10],0
same,B. signalgrass plant response rating,surinam grass; [11],0
same,Ducksalad plant response rating,duck salad; [1],0
same,Ducksalad plant response rating,duck salad; [2],0
same,Ducksalad plant response rating,duck salad; [3],0
same,Ducksalad plant response rating,duck salad; [4],0
same,Redroot pigweed plant response rating,pigweed; [1],0
same,Redroot pigweed plant response rating,pigweed; [5],0
same,"Plant response rating, Redroot pigweed",pigweed; [6],0
same,"Plant response rating, Redroot pigweed",pigweed; [7],0
same,"Plant response rating, Redroot pigweed",pigweed; [8],0
same,Redroot pigweed plant response rating,pigweed; [9],0
same,Redroot pigweed plant response rating,pigweed; [10],0
same,Redroot pigweed plant response rating,pigweed; [11],0
same,Rape plant response rating,rape; [1],0
same,Rape plant response rating,rape; [5],0
same,"Plant response rating, Rape",rape; [6],0
same,"Plant response rating, Rape",rape; [7],0
same,"Plant response rating, Rape",rape; [8],0
same,Rape plant response rating,rape; [9],0
same,Rape plant response rating,rape; [10],0
same,Rape plant response rating,rape; [11],0
same,Wheat plant response rating,wheat; [1],0
same,Wheat plant response rating,wheat; [5],0
same,"Plant response rating, Wheat",wheat; [6],0
same,"Plant response rating, Wheat",wheat; [7],0
same,"Plant response rating, Wheat",wheat; [8],0
same,Wheat plant response rating,wheat; [9],0
same,Wheat plant response rating,wheat; [10],0
same,Cocklebur plant response rating,cocklebur; [1],0
same,Cocklebur plant response rating,cocklebur; [5],0
same,"Plant response rating, Cocklebur",cocklebur; [6],0
same,"Plant response rating, Cocklebur",cocklebur; [7],0
same,"Plant response rating, Cocklebur",cocklebur; [8],0
same,Cocklebur plant response rating,cocklebur; [9],0
same,Cocklebur plant response rating,cocklebur; [10],0
same,Cocklebur plant response rating,cocklebur; [11],0
same,Corn plant response rating,corn; [1],0
same,Corn plant response rating,corn; [5],0
same,"Plant response rating, Corn",corn; [6],0
same,"Plant response rating, Corn",corn; [7],0
same,"Plant response rating, Corn",corn; [8],0
same,Corn plant response rating,corn; [9],0
same,Corn plant response rating,corn; [10],0
same,Corn plant response rating,corn; [11],0
same,Wild oats plant response rating,wild oat; [1],0
same,Wild oats plant response rating,wild oat; [5],0
same,"Plant response rating, Wild oats",wild oat; [7],0
same,"Plant response rating, Wild oats",wild oat; [8],0
same,Wild oats plant response rating,wild oat; [9],0
same,Wild oats plant response rating,wild oat; [10],0
same,Barnyardgrass plant response rating,bamyardgrass; [1],0
same,Barnyardgrass plant response rating,bamyardgrass; [2],0
same,Barnyardgrass plant response rating,bamyardgrass; [3],0
same,Barnyardgrass plant response rating,bamyardgrass; [4],0
same,Giant foxtail plant response rating,giant foxtail; [1],0
same,Giant foxtail plant response rating,giant foxtail; [5],0
same,"Plant response rating, Giant foxtail",giant foxtail; [6],0
same,"Plant response rating, Giant foxtail",giant foxtail; [7],0
same,"Plant response rating, Giant foxtail",giant foxtail; [8],0
same,Giant foxtail plant response rating,giant foxtail; [9],3
same,Giant foxtail plant response rating,giant foxtail; [10],0
same,Giant foxtail plant response rating,giant foxtail; [11],0
same,Crabgrass plant response rating,crabgrass; [1],0
same,Crabgrass plant response rating,crabgrass; [5],0
same,"Plant response rating, Crabgrass",crabgrass; [6],0
same,"Plant response rating, Crabgrass",crabgrass; [7],0
same,"Plant response rating, Crabgrass",crabgrass; [8],0
same,Crabgrass plant response rating,crabgrass; [9],8
same,Crabgrass plant response rating,crabgrass; [10],0
same,Crabgrass plant response rating,crabgrass; [11],0
same,Sugarbeets plant response rating,sugar beet; [1],0
same,Sugarbeets plant response rating,sugar beet; [5],0
same,"Plant response rating, Sugarbeets",sugar beet; [6],0
same,"Plant response rating, Sugarbeets",sugar beet; [7],0
same,"Plant response rating, Sugarbeets",sugar beet; [8],0
same,Sugarbeets plant response rating,sugar beet; [9],0
same,Sugarbeets plant response rating,sugar beet; [10],0
same,Morningglory plant response rating,morningglory; [1],0
same,Morningglory plant response rating,morningglory; [5],0
same,"Plant response rating, Morningglory",morningglory; [6],0
same,"Plant response rating, Morningglory",morningglory; [7],0
same,"Plant response rating, Morningglory",morningglory; [8],0
same,Morningglory plant response rating,morningglory; [9],0
same,Morningglory plant response rating,morningglory; [10],0
same,Morningglory plant response rating,morningglory; [11],0
same,Nutsedge plant response rating,purple nutsedge; [1],0
same,Nutsedge plant response rating,purple nutsedge; [5],0
same,"Plant response rating, Nutsedge",purple nutsedge; [6],0
same,"Plant response rating, Nutsedge",purple nutsedge; [7],0
same,"Plant response rating, Nutsedge",purple nutsedge; [8],0
same,Nutsedge plant response rating,purple nutsedge; [9],0
same,Nutsedge plant response rating,purple nutsedge; [10],0
same,Nutsedge plant response rating,purple nutsedge; [11],0
COc1ccccc1-n1c(=O)on(C(=O)N(c2ccc(F)cc2F)C(C)C)c1=O [Compound 31],Rice plant response rating,rice; [1],0
same,Rice plant response rating,rice; [2],0
same,Rice plant response rating,rice; [3],0
same,Rice plant response rating,rice; [4],0
same,S. Flatsedge plant response rating,smallflower flatsedge; [1],0
same,S. Flatsedge plant response rating,smallflower flatsedge; [2],0
same,S. Flatsedge plant response rating,smallflower flatsedge; [4],0
same,B. signalgrass plant response rating,surinam grass; [1],0
same,B. signalgrass plant response rating,surinam grass; [5],0
same,B. signalgrass plant response rating,surinam grass; [12],0
same,"Plant response rating, B. signalgrass",surinam grass; [6],0
same,"Plant response rating, B. signalgrass",surinam grass; [7],0
same,"Plant response rating, B. signalgrass",surinam grass; [8],6
same,B. signalgrass plant response rating,surinam grass; [13],0
same,B. signalgrass plant response rating,surinam grass; [10],0
same,Ducksalad plant response rating,duck salad; [1],0
same,Ducksalad plant response rating,duck salad; [2],0
same,Ducksalad plant response rating,duck salad; [3],0
same,Ducksalad plant response rating,duck salad; [4],0
same,Redroot pigweed plant response rating,pigweed; [1],0
same,Redroot pigweed plant response rating,pigweed; [5],0
same,Redroot pigweed plant response rating,pigweed; [12],0
same,"Plant response rating, Redroot pigweed",pigweed; [6],0
same,"Plant response rating, Redroot pigweed",pigweed; [7],0
same,"Plant response rating, Redroot pigweed",pigweed; [8],3
same,Redroot pigweed plant response rating,pigweed; [13],0
same,Redroot pigweed plant response rating,pigweed; [10],0
same,Rape plant response rating,rape; [1],0
same,Rape plant response rating,rape; [5],0
same,Rape plant response rating,rape; [12],0
same,"Plant response rating, Rape",rape; [6],0
same,"Plant response rating, Rape",rape; [7],0
same,"Plant response rating, Rape",rape; [8],4
same,Rape plant response rating,rape; [13],0
same,Rape plant response rating,rape; [10],0
same,Wheat plant response rating,wheat; [1],0
same,Wheat plant response rating,wheat; [5],0
same,Wheat plant response rating,wheat; [12],0
same,"Plant response rating, Wheat",wheat; [6],0
same,"Plant response rating, Wheat",wheat; [7],0
same,"Plant response rating, Wheat",wheat; [8],0
same,Wheat plant response rating,wheat; [10],0
same,Cocklebur plant response rating,cocklebur; [1],0
same,Cocklebur plant response rating,cocklebur; [5],1
same,Cocklebur plant response rating,cocklebur; [12],0
same,"Plant response rating, Cocklebur",cocklebur; [6],0
same,"Plant response rating, Cocklebur",cocklebur; [7],0
same,"Plant response rating, Cocklebur",cocklebur; [8],0
same,Cocklebur plant response rating,cocklebur; [13],0
same,Cocklebur plant response rating,cocklebur; [10],0
same,Corn plant response rating,corn; [1],0
same,Corn plant response rating,corn; [5],0
same,Corn plant response rating,corn; [12],0
same,"Plant response rating, Corn",corn; [6],0
same,"Plant response rating, Corn",corn; [7],0
same,"Plant response rating, Corn",corn; [8],0
same,Corn plant response rating,corn; [13],0
same,Corn plant response rating,corn; [10],0
same,Wild oats plant response rating,wild oat; [1],0
same,Wild oats plant response rating,wild oat; [5],0
same,Wild oats plant response rating,wild oat; [12],0
same,"Plant response rating, Wild oats",wild oat; [7],2
same,"Plant response rating, Wild oats",wild oat; [8],4
same,Wild oats plant response rating,wild oat; [10],0
same,Barnyardgrass plant response rating,bamyardgrass; [1],0
same,Barnyardgrass plant response rating,bamyardgrass; [2],0
same,Barnyardgrass plant response rating,bamyardgrass; [3],0
same,Barnyardgrass plant response rating,bamyardgrass; [4],0
same,Giant foxtail plant response rating,giant foxtail; [1],0
same,Giant foxtail plant response rating,giant foxtail; [5],4
same,Giant foxtail plant response rating,giant foxtail; [12],1
same,"Plant response rating, Giant foxtail",giant foxtail; [6],6
same,"Plant response rating, Giant foxtail",giant foxtail; [7],8
same,"Plant response rating, Giant foxtail",giant foxtail; [8],8
same,Giant foxtail plant response rating,giant foxtail; [13],0
same,Giant foxtail plant response rating,giant foxtail; [10],0
same,Crabgrass plant response rating,crabgrass; [1],0
same,Crabgrass plant response rating,crabgrass; [5],9
same,Crabgrass plant response rating,crabgrass; [12],2
same,"Plant response rating, Crabgrass",crabgrass; [6],9
same,"Plant response rating, Crabgrass",crabgrass; [7],9
same,"Plant response rating, Crabgrass",crabgrass; [8],9
same,Crabgrass plant response rating,crabgrass; [13],0
same,Crabgrass plant response rating,crabgrass; [10],2
same,Sugarbeets plant response rating,sugar beet; [1],0
same,Sugarbeets plant response rating,sugar beet; [5],0
same,Sugarbeets plant response rating,sugar beet; [12],0
same,"Plant response rating, Sugarbeets",sugar beet; [6],0
same,"Plant response rating, Sugarbeets",sugar beet; [7],0
same,"Plant response rating, Sugarbeets",sugar beet; [8],0
same,Sugarbeets plant response rating,sugar beet; [10],0
same,Morningglory plant response rating,morningglory; [1],0
same,Morningglory plant response rating,morningglory; [5],3
same,Morningglory plant response rating,morningglory; [12],0
same,"Plant response rating, Morningglory",morningglory; [6],0
same,"Plant response rating, Morningglory",morningglory; [7],0
same,"Plant response rating, Morningglory",morningglory; [8],0
same,Morningglory plant response rating,morningglory; [13],0
same,Morningglory plant response rating,morningglory; [10],1
same,Nutsedge plant response rating,purple nutsedge; [1],0
same,Nutsedge plant response rating,purple nutsedge; [5],0
same,Nutsedge plant response rating,purple nutsedge; [12],0
same,"Plant response rating, Nutsedge",purple nutsedge; [6],0
same,"Plant response rating, Nutsedge",purple nutsedge; [7],0
same,"Plant response rating, Nutsedge",purple nutsedge; [8],0
same,Nutsedge plant response rating,purple nutsedge; [13],0
same,Nutsedge plant response rating,purple nutsedge; [10],0
